Measurements as given in patent US20040242660A1, “Substituted oxazolidinones for combinational therapy” (priority 2001, published 2004).

Biological target: human factor Xa (FXa) (Homo sapiens, UniProt P00742)
Assay: Measurement of factor Xa inhibition (chromogenic substrate)
Format: biochemical
Conditions: not given
Procedure: a.1) Measurement of Factor Xa Inhibition
In this case, factor Xa eliminates p-nitroaniline from the chromogenic substrate.
The test substances were dissolved in various concentrations in DMSO and incubated with human FXa (0.5 nmol/l dissolved in 50 mmol/l tris buffer [C,C,C-tris(hydroxymethyl)-aminomethane], 150 mmol/l NaCl, 0.1% BSA (bovine serum albumine), pH=8,3) at 25° C. for 10 minutes. Pure DMSO serves as control.

Chain of human factor Xa (FXa) (P00742 235-488 limits assumed): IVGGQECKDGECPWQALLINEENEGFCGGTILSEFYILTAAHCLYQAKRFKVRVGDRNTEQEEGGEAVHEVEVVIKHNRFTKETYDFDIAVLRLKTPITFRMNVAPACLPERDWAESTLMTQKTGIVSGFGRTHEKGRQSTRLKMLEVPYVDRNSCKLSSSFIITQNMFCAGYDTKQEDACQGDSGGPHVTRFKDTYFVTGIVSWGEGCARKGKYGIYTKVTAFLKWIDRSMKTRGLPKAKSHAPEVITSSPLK
Chain of human factor Xa (FXa) (P00742 41-179 partner limits assumed): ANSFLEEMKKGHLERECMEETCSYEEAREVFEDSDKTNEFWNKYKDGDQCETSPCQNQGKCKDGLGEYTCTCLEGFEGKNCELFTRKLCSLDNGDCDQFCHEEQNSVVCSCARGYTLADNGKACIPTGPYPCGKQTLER

In order of rising IC50:
1. O=C(NC[C@H]1CN(c2ccc(N3CCCCC3=O)cc2)C(=O)O1)c1ccc(Br)s1 [Example 129]  1 nM
2. O=C(NC[C@H]1CN(c2ccc(N3CCCC3=O)c(F)c2)C(=O)O1)c1ccc(Br)s1 [Example 128]  2 nM
3. O=C(NC[C@H]1CN(c2ccc(N3CCCC3=O)c(F)c2)C(=O)O1)c1ccc(Cl)s1 [Example 130]  3.3 nM
4. NC1CCN(c2ccc(N3CC(CNC(=O)c4ccc(Cl)s4)OC3=O)cc2F)C1 (stereo not drawn) [Example 126]  13 nM
5. NC1CCCN(c2ccc(N3CC(CNC(=O)c4ccc(Cl)s4)OC3=O)cc2F)C1 (stereo not drawn) [Example 137]  44 nM
6. O=C(NCC1CN(c2ccc(N3CCC(O)C3)c(F)c2)C(=O)O1)c1ccc(Cl)s1 (stereo not drawn) [Example 133]  62 nM
7. O=C(NCC1CN(c2ccc(N3CCC3)c(F)c2)C(=O)O1)c1ccc(Cl)s1 (stereo not drawn) [Example 132]  120 nM
8. O=C(NCC1CN(c2ccc(NCCCO)cc2)C(=O)O1)c1ccc(Cl)s1 (stereo not drawn) [Example 138]  420 nM
9. O=C(NCC1CN(c2ccc(N3CCCC(O)C3)c(F)c2)C(=O)O1)c1ccc(Cl)s1 (stereo not drawn) [Example 134]  480 nM
10. O=C(NCC1CN(c2ccc(C3CCCCC3)cc2)C(=O)O1)c1ccc(Cl)s1 (stereo not drawn) [Example 131]  850 nM
11. CC(C)(C)OC(=O)NC1CCCN(c2ccc(N3CC(CNC(=O)c4ccc(Cl)s4)OC3=O)cc2F)C1 (stereo not drawn) [Example 135]  1100 nM
12. CC1(N)CCN(c2ccc(N3CC(CNC(=O)c4ccc(Cl)s4)OC3=O)cc2F)CC1 (stereo not drawn) [Example 136]  1200 nM
13. O=C(NCC1CN(c2ccc(-n3cccc3)cc2)C(=O)O1)c1ccc(Cl)s1 (stereo not drawn) [Example 139]  1700 nM

Same assay, conditions: factor Xa inhibition

In order of rising IC50:
1. O=C(NCC1CN(c2ccc(N3CCCS3(=O)=O)cc2)C(=O)O1)c1ccc(Cl)s1 (stereo not drawn) [Example 160, 5-Chloro-N-({3-[4-(1,1-dioxido-2-isothiazolidinyl)phenyl]-2-oxo1,3-oxazolidin-5-yl}methyl)-2-thiophenecarboxamide]  140 nM
2. Cc1ccc(C(=O)NCC2CN(c3ccc(N4CCCC4=O)cc3)C(=O)O2)s1 (stereo not drawn) [Example 42, 5-Methyl-N-({2-oxo-3-[4-(2-oxo-1-pyrrolidinyl)phenyl]-1,3-oxazolidin-5-yl}methyl)-2-thiophenecarboxamide]  160 nM
3. CCN(CC)c1ccc(N2C[C@H](CNC(=O)c3ccc(Cl)s3)OC2=O)cc1 [Example 19, 5-Chloro-N-({(5S)-2-oxo-3-[4-(diethylamino)phenyl]-1,3-oxazolidin-5-yl}methyl)-2-thiophenecarboxamide]  270 nM
4. O=C(NC[C@H]1CN(c2ccc(N3CCC3=O)cc2)C(=O)O1)c1ccc(Cl)s1 [Example 164, 5-Chloro-N-({(5S)-2-oxo-3-[4-(2-oxo-1-azetidinyl)phenyl]-1,3-oxazolidin-5-yl}-methyl)-2-thiophenecarboxamide]  380 nM
5. Cc1noc(C)c1C(=O)Nc1ccc(N2CC(CNC(=O)c3ccc(Cl)s3)OC2=O)cc1 (stereo not drawn) [Example 158, N-{4-[5-({[(5-Chloro-2-thienyl)carbonyl]amino}methyl)-2-oxo-1,3-oxazolidin-3-yl]phenyl}-3,5-dimethyl-4-isoxazolecarboxamide]  460 nM
6. CC(=O)NCc1ccc(N2CC(CNC(=O)c3ccc(Cl)s3)OC2=O)cc1 (stereo not drawn) [Example 153, N-[(3-{4-[(Acetylamino)methyl]phenyl}-2-oxo-1,3-oxazolidin-5-yl)methyl]-5-chloro-2-thiophenecarboxamide]  600 nM
7. COCC(=O)Nc1ccc(N2CC(CNC(=O)c3ccc(Cl)s3)OC2=O)cc1 (stereo not drawn) [Example 157, 5-Chloro-N-[(3-{4-[(methoxyacetyl)amino]phenyl}-2-oxo-1,3-oxazolidin-5-yl)-methyl]-2-thiophenecarboxamide]  730 nM
8. O=C(NC[C@H]1CN(c2ccc(S(=O)(=O)N3CCC3)cc2)C(=O)O1)c1ccc(Cl)s1 [Example 39, 5-Chloro-N-({(5S)-3-[4-(1-azetidinylsulfonyl)phenyl]-2-oxo-1,3-oxazolidin-5-yl}methyl)-2-thiophenecarboxamide]  840 nM
9. CC(=O)Nc1ccc(N2CC(CNC(=O)c3ccc(Cl)s3)OC2=O)cc1 (stereo not drawn) [Example 155, N-({3-[4-(Acetylamino)phenyl]-2-oxo-1,3-oxazolidin-5-yl}methyl)-5-chloro-2-thiophenecarboxamide]  1200 nM
10. O=C(NCC1CN(c2ccc(N3CCCC3=O)cc2)C(=O)O1)c1cccs1 (stereo not drawn) [Example 41, N-({2-oxo-3-[4-(2-oxo-1-pyrrolidinyl)phenyl]-1,3-oxazolidin-5-yl}methyl)-2-thiophenecarboxamide]  1300 nM
11. O=C(NCC1CN(c2ccc(NS(=O)(=O)CCCCl)cc2)C(=O)O1)c1ccc(Cl)s1 (stereo not drawn) [Example 159, 5-Chloro-N-{[3-(4-{[(3-chloropropyl)sulfonyl]amino}phenyl)-2-oxo-1,3-oxazolidin-5-yl]methyl}-2-thiophenecarboxamide]  1700 nM
12. NCC1CN(c2ccc(N3CCCC3=O)cc2)C(=O)O1 (stereo not drawn) [Example 151, 5-(Aminomethyl)-3-[4-(2-oxo-1-pyrrolidinyl)phenyl]-1,3-oxazolidin-2-one]  2000 nM
13. O=C(NCC1CN(c2ccccc2)C(=O)O1)c1ccc(Cl)s1 (stereo not drawn) [Example 96, 5-Chloro-N-[(2-oxo-3-phenyl-1,3-oxazolidin-5-yl)methyl]-2-thiophenecarboxamide]  2000 nM
14. O=C(NC[C@H]1CN(c2ccc(S(=O)(=O)N3CCOCC3)cc2)C(=O)O1)c1ccc(Cl)s1 [Example 38, 5-Chloro-N-({(5S)-3-[4-(4-morpholinylsulfonyl)phenyl]-2-oxo-1,3-oxazolidin-5-yl}methyl)-2-thiophenecarboxamide]  2000 nM
15. CC(C)(C)OC(=O)N1CC(=O)N(c2ccc(N3CC(CNC(=O)c4ccc(Cl)s4)OC3=O)cc2)C(=O)C1 (stereo not drawn) [Example 165, tert-Butyl 4-{4-[5-({[(5-chloro-2-thienyl)carbonyl]amino}methyl)-2-oxo-1,3-oxazolidin-3-yl]phenyl}-3,5-dioxo-1-piperazinecarboxylate]  2000 nM
16. Nc1ccc(N2CC(CNC(=O)c3ccc(Cl)s3)OC2=O)cc1 (stereo not drawn) [Example 149, N-{[3-(4-Aminophenyl)-2-oxo-1,3-oxazolidin-5-yl]methyl}-5-chloro-2-thiophenecarboxamide]  2000 nM
17. NCC(=O)Nc1ccc(N2CC(CNC(=O)c3ccc(Cl)s3)OC2=O)cc1 (stereo not drawn) [Example 150, 5-Chloro-N-({3-[4-(glycylamino)phenyl]-2-oxo-1,3-oxazolidin-5-yl}methyl)-2-thiophenecarboxamide]  2000 nM
18. NCc1ccc(N2CC(CNC(=O)c3ccc(Cl)s3)OC2=O)cc1 (stereo not drawn) [Example 148, N-({3-[4-(Aminomethyl)phenyl]-2-oxo-1,3-oxazolidin-5-yl}methyl)-5-chloro-2-thiophenecarboxamide]  2200 nM

Same assay, conditions: table of Examples 48-58

In order of rising IC50:
1. O=C(NC[C@H]1CN(c2ccc(N3CCOC3=O)cc2)C(=O)O1)c1ccc(Cl)s1 [Example 55]  40 nM
2. Cc1ccc(C(=O)NC[C@H]2CN(c3ccc(N4CCCC4=O)cc3)C(=O)O2)s1 [Example 57]  580 nM
3. O=C(NC[C@H]1CN(c2ccc3c(c2)OCc2nccn2-3)C(=O)O1)c1ccc(Cl)s1 [Example 53]  740 nM
4. CC1Oc2cc(N3C[C@H](CNC(=O)c4ccc(Cl)s4)OC3=O)ccc2N(C)C1=O (stereo partly drawn) [Example 50]  1150 nM
5. CN1C(=O)COc2cc(N3C[C@H](CNC(=O)c4ccc(Cl)s4)OC3=O)ccc21 [Example 51]  1190 nM
